Measured values as given in patent US10894784B2, “Heteroarylbenzimidazole compounds” (BAYER PHARMA AKTIENGESELLSCHAFT, priority 2015, dated 2021).
Values joined by “and” are separate entries in the source; they are usually repeats but may differ in a detail not shown here. Equal entries are not always repeated.

Molecular target: TBK1 (Homo sapiens (Human), UniProt Q9UHD2)
Assay: TBK1 low ATP kinase assay (in vitro assay 1)
Assay type: biochemical
Details: in vitro assay 1, read-out: TBK1 low ATP kinase assay IC50

Chain of TBK1 (Q9UHD2 whole entry): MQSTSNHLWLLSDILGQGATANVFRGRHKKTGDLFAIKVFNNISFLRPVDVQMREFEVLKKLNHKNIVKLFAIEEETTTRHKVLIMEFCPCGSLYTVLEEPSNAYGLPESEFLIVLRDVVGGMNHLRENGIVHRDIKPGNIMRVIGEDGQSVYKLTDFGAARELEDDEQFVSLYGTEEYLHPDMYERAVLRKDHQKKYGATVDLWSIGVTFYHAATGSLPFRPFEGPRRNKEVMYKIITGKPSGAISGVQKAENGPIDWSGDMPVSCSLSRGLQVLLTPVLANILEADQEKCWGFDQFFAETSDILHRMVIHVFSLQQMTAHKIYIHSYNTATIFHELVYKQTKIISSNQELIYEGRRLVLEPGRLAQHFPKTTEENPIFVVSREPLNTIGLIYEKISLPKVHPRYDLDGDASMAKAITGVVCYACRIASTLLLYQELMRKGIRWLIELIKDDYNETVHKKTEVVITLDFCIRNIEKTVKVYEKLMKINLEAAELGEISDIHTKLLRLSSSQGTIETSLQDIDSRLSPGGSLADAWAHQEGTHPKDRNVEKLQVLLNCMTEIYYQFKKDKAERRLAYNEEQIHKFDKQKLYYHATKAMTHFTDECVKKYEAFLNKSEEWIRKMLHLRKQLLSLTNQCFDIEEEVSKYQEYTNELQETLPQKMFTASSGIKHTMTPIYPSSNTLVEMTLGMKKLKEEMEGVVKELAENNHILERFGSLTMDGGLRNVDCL

Row | Structure (SMILES) | IC50
1 | COc1cnc(C)cc1-c1ccc2nc(Nc3cc(CN4CCN(C(=O)C5CCC5)CC4)ccn3)[nH]c2c1 [Example 07.03, cyclobutyl{4-[(2-{[6-(5-methoxy-2-methylpyridin-4-yl)-1H-benzimidazol-2-yl]amino}pyridin-4-yl)methyl]piperazin-1-yl}methanone] | 384 nM
2 | COc1cnc(C)cc1-c1ccc2nc(Nc3cc(CN4CCN(C(=O)CC5CC5)CC4)ccn3)[nH]c2c1 [Example 07.04, 2-cyclopropyl-1-{4-[(2-{[6-(5-methoxy-2-methylpyridin-4-yl)-1H-benzimidazol-2-yl]amino}pyridin-4-yl)methyl]piperazin-1-yl}ethanone] | 444 nM
3 | COc1cnc(C(=O)N(C)C)cc1-c1ccc2nc(Nc3cc(CN4CCN(C(=O)C5CC5)CC4)ccn3)[nH]c2c1 [Example 08.01, 4-{2-[(4-{[4-(cyclopropylcarbonyl)piperazin-1-yl]methyl}pyridin-2-yl)amino]-1H-benzimidazol-6-yl}-5-methoxy-N,N-dimethylpyridine-2-carboxamide] | 624 nM
4 | CCOc1cnc(C)cc1-c1ccc2nc(Nc3cc(CN4CCN(C(=O)C5CCC5)CC4)ccn3)[nH]c2c1 [Example 09.04, cyclobutyl{4-[(2-{[6-(5-ethoxy-2-methylpyridin-4-yl)-1H-benzimidazol-2-yl]amino}pyridin-4-yl)methyl]piperazin-1-yl}methanone] | 352 nM
5 | COc1nccc(-c2ccc3nc(Nc4cc(CN5CCN(C(=O)C6CC6)CC5)ccn4)[nH]c3c2)c1C [Example 10.01, cyclopropyl{4-[(2-{[6-(2-methoxy-3-methylpyridin-4-yl)-1H-benzimidazol-2-yl]amino}pyridin-4-yl)methyl]piperazin-1-yl}methanone] | 2260 nM
6 | Cc1c(-c2ccc3nc(Nc4cc(CN5CCN(C(=O)C6CC6)CC5)ccn4)[nH]c3c2)ccnc1OC(C)C [Example 11.01, cyclopropyl(4-{[2-({6-[3-methyl-2-(propan-2-yloxy)pyridin-4-yl]-1H-benzimidazol-2-yl}amino)pyridin-4-yl]methyl}piperazin-1-yl)methanone] | 3610 nM
7 | Cc1cccc(-c2ccc3nc(Nc4cc(CN5CCN(C(=O)OC(C)(C)C)CC5)ccn4)[nH]c3c2)n1 [Example 12.01, tert-butyl 4-[(2-{[6-(6-methylpyridin-2-yl)-1H-benzimidazol-2-yl]amino}pyridin-4-yl)methyl]piperazine-1-carboxylate] | > 20000 nM and 10000 nM and 8120 nM
8 | Cc1cccc(-c2ccc3nc(Nc4cc(CN5CCN(C(=O)C6CC6)CC5)ccn4)[nH]c3c2)n1 [Example 12.02, cyclopropyl{4-[(2-{[6-(6-methylpyridin-2-yl)-1H-benzimidazol-2-yl]amino}pyridin-4-yl)methyl]piperazin-1-yl}methanone] | 924 nM
9 | COc1ccc(-c2ccc3nc(Nc4cc(CN5CCN(C(=O)OC(C)(C)C)CC5)ccn4)[nH]c3c2)cn1 [Example 13.01, tert-butyl 4-[(2-{[6-(6-methoxypyridin-3-yl)-1H-benzimidazol-2-yl]amino}pyridin-4-yl)methyl]piperazine-1-carboxylate] | 1250 nM
10 | COc1ccncc1-c1ccc2nc(Nc3cc(CN4CCN(C(=O)C5CC5)CC4)ccn3)[nH]c2c1 [Example 14.03, cyclopropyl{4-[(2-{[6-(4-methoxypyridin-3-yl)-1H-benzimidazol-2-yl]amino}pyridin-4-yl)methyl]piperazin-1-yl}methanone] | 550 nM
11 | COc1ncccc1-c1ccc2nc(Nc3cc(CN4CCN(C(=O)CC(F)(F)F)CC4)ccn3)[nH]c2c1 [Example 15.01, 3,3,3-trifluoro-1-{4-[(2-{[6-(2-methoxypyridin-3-yl)-1H-benzimidazol-2-yl]amino}pyridin-4-yl)methyl]piperazin-1-yl}propan-1-one] | 339 nM

Further compounds by falling IC50, results first:

Row | IC50 | Structure (SMILES)
12 | 324 nM | CCOc1cnc(C)cc1-c1ccc2nc(Nc3cc(CN4CCN(C(=O)CC5CC5)CC4)ccn3)[nH]c2c1 [Example 09.03, 2-cyclopropyl-1-{4-[(2-{[6-(5-ethoxy-2-methylpyridin-4-yl)-1H-benzimidazol-2-yl]amino}pyridin-4-yl)methyl]piperazin-1-yl}ethanone]
13 | 297 nM | CCOc1cnc(C)cc1-c1ccc2nc(Nc3cc(CN4CCN(C(=O)C5CC5)CC4)ccn3)[nH]c2c1 [Example 09.02, cyclopropyl{4-[(2-{[6-(5-ethoxy-2-methylpyridin-4-yl)-1H-benzimidazol-2-yl]amino}pyridin-4-yl)methyl]piperazin-1-yl}methanone]
14 | 283 nM | COc1ccncc1-c1ccc2nc(Nc3cc(CN4CCN(C(=O)CC5CC5)CC4)ccn3)[nH]c2c1 [Example 14.02, 2-cyclopropyl-1-{4-[(2-{[6-(4-methoxypyridin-3-yl)-1H-benzimidazol-2-yl]amino}pyridin-4-yl)methyl]piperazin-1-yl}ethanone]
15 | 277 nM | COc1cnc(C)cc1-c1ccc2nc(Nc3cc(CN4CCN(C(=O)CC(F)(F)F)CC4)ccn3)[nH]c2c1 [Example 07.02, 3,3,3-trifluoro-1-{4-[(2-{[6-(5-methoxy-2-methylpyridin-4-yl)-1H-benzimidazol-2-yl]amino}pyridin-4-yl)methyl]piperazin-1-yl}propan-1-one]
16 | 251 nM | CCOc1cnc(C)cc1-c1ccc2nc(Nc3cc(CN4CCN(C(=O)CC(F)(F)F)CC4)ccn3)[nH]c2c1 [Example 09.01, 1-{4-[(2-{[6-(5-ethoxy-2-methylpyridin-4-yl)-1H-benzimidazol-2-yl]amino}pyridin-4-yl)methyl]piperazin-1-yl}-3,3,3-trifluoropropan-1-one]
17 | 224 nM | COc1cnc(C)cc1-c1ccc2nc(Nc3cc(CN4CCN(C(=O)C5CC5)CC4)ccn3)[nH]c2c1 [Example 07.01, cyclopropyl{4-[(2-{[6-(5-methoxy-2-methylpyridin-4-yl)-1H-benzimidazol-2-yl]amino}pyridin-4-yl)methyl]piperazin-1-yl}methanone]
18 | 195 nM | COc1ccncc1-c1ccc2nc(Nc3cc(CN4CCN(C(=O)C5CCC5)CC4)ccn3)[nH]c2c1 [Example 14.01, cyclobutyl{4-[(2-{[6-(4-methoxypyridin-3-yl)-1H-benzimidazol-2-yl]amino}pyridin-4-yl)methyl]piperazin-1-yl}methanone]
19 | 190 nM | COc1ccc(-c2ccc3nc(Nc4cc(CN5CCN(C(=O)CC(F)(F)F)CC5)ccn4)[nH]c3c2)cn1 [Example 13.03, 3,3,3-trifluoro-1-{4-[(2-{[6-(6-methoxypyridin-3-yl)-1H-benzimidazol-2-yl]amino}pyridin-4-yl)methyl]piperazin-1-yl}propan-1-one]
20 | 166 nM | COc1ccc(-c2ccc3nc(Nc4cc(CN5CCN(C(=O)C6CC6)CC5)ccn4)[nH]c3c2)cn1 [Example 13.02, cyclopropyl{4-[(2-{[6-(6-methoxypyridin-3-yl)-1H-benzimidazol-2-yl]amino}pyridin-4-yl)methyl]piperazin-1-yl}methanone]
21 | 8.26 nM | CC(C)Oc1cnccc1-c1ccc2nc(Nc3cc(CN4CCN(C(=O)CC5CC5)CC4)ccn3)[nH]c2c1 [Example 06.03, 2-cyclopropyl-1-(4-{[2-({6-[3-(propan-2-yloxy)pyridin-4-yl]-1H-benzimidazol-2-yl}amino)pyridin-4-yl]methyl}piperazin-1-yl)ethanone]
